Experiments:
Test in all cases: Greenhouse post-emergence weed control, percent injury vs untreated control
Assay type in all cases: in vivo
Details in all cases: 19 DAT
[1] = test system: Amaranthus tuberculatus (AMATU)
Galium aparine (GALAP) = test system: Galium aparine (GALAP)
[2] = test system: Echinochloa crus-galli (ECHCG)
Hordeum vulgare (HORVS) = test system: Hordeum vulgare (HORVS)
[3] = test system: Amaranthus Palmeri (AMAPA)
[4] = test system: Ambrosia artemisiifolia (AMBEL)

Molecule: N#Cc1cnn(-c2nn3c(c2Cl)CCCC3)c1NCC1CC1 [cyclopyranyl, cyclopyranil]
- Solo cyclopyranyl (6.25 g ai/ha) % activity ([1]; 6.25 g ai/ha): 65%
- Solo cyclopyranyl (6.25 g ai/ha) % activity (Galium aparine (GALAP); 6.25 g ai/ha): 65%
- Solo cyclopyranyl (6.25 g ai/ha) % activity ([2]; 6.25 g ai/ha): 25%
- Solo cyclopyranyl (6.25 g ai/ha) % activity (Hordeum vulgare (HORVS); 6.25 g ai/ha): 15%
- Solo cyclopyranyl (1.5625 g ai/ha) % activity ([3]; 1.5625 g ai/ha): 10%
- Solo cyclopyranyl (3.125 g ai/ha) % activity ([3]; 3.125 g ai/ha): 10%
- Solo cyclopyranyl (6.25 g ai/ha) % activity ([3]; 6.25 g ai/ha): 25%

Molecule: CP(=O)(O)CCC(N)C(=O)O (racemic) [Glufosinate, (2RS)-2-amino-4-[hydroxy(methyl)phosphinoyl]butyric acid]
- inhibition at 50 g/ha ([1]; Amaranthus tuberculatus, 456 h, 50 g ai/ha, read-out: Solo Glufosinate (50 g ai/ha) % activity): 40%
- inhibition at 100 g/ha ([1]; Amaranthus tuberculatus, 456 h, 100 g ai/ha, read-out: Solo Glufosinate (100 g ai/ha) % activity): 70%
- inhibition at 200 g/ha ([1]; Amaranthus tuberculatus, 456 h, 200 g ai/ha, read-out: Solo Glufosinate (200 g ai/ha) % activity): 90%
- inhibition at 50 g/ha (Galium aparine (GALAP); Galium aparine, 456 h, 50 g ai/ha, read-out: Solo Glufosinate (50 g ai/ha) % activity): 30%
- inhibition at 50 g/ha ([2]; Echinochloa crus-galli, 456 h, 50 g ai/ha, read-out: Solo Glufosinate (50 g ai/ha) % activity): 10%
- inhibition at 100 g/ha ([2]; Echinochloa crus-galli, 456 h, 100 g ai/ha, read-out: Solo Glufosinate (100 g ai/ha) % activity): 25%
- inhibition at 200 g/ha ([2]; Echinochloa crus-galli, 456 h, 200 g ai/ha, read-out: Solo Glufosinate (200 g ai/ha) % activity): 70%
- inhibition at 50 g/ha ([4]; Ambrosia artemisiifolia, 456 h, 50 g ai/ha, read-out: Solo Glufosinate (50 g ai/ha) % activity): 40%
- inhibition at 100 g/ha (Hordeum vulgare (HORVS); Hordeum vulgare, 456 h, 100 g ai/ha, read-out: Solo Glufosinate (100 g ai/ha) % activity): 0%
- inhibition at 200 g/ha (Hordeum vulgare (HORVS); Hordeum vulgare, 456 h, 200 g ai/ha, read-out: Solo Glufosinate (200 g ai/ha) % activity): 30%
- inhibition at 50 g/ha ([3]; Amaranthus palmeri, 456 h, 50 g ai/ha, read-out: Solo Glufosinate (50 g ai/ha) % activity): 35%
- inhibition at 100 g/ha ([3]; Amaranthus palmeri, 456 h, 100 g ai/ha, read-out: Solo Glufosinate (100 g ai/ha) % activity): 30%
- inhibition at 200 g/ha ([3]; Amaranthus palmeri, 456 h, 200 g ai/ha, read-out: Solo Glufosinate (200 g ai/ha) % activity): 80%

Molecule: Oxadiargyl
- Solo Oxadiargyl (6.25 g ai/ha) % activity ([1]; 6.25 g ai/ha): 40%
- Solo Oxadiargyl (3.125 g ai/ha) % activity ([2]; 3.125 g ai/ha): 15%
- Solo Oxadiargyl (3.125 g ai/ha) % activity ([4]; 3.125 g ai/ha): 20%
- Solo Oxadiargyl (6.25 g ai/ha) % activity ([4]; 6.25 g ai/ha): 10%
- Solo Oxadiargyl (3.125 g ai/ha) % activity ([3]; 3.125 g ai/ha): 40%
- Solo Oxadiargyl (6.25 g ai/ha) % activity ([3]; 6.25 g ai/ha): 30%

Molecule: C#CCN(C)c1c(C#N)cnn1-c1nn2c(c1Cl)CCCC2 [Pyraclonil]
- Solo pyraclonil (1.5625 g ai/ha) % activity ([1]; 1.5625 g ai/ha): 20%
- Solo Pyraclonil (6.25 g ai/ha) % activity ([1]; 6.25 g ai/ha): 35%
- Solo pyraclonil (1.5625 g ai/ha) % activity ([4]; 1.5625 g ai/ha): 25%
- Solo Pyraclonil (6.25 g ai/ha) % activity ([4]; 6.25 g ai/ha): 65%
- Solo pyraclonil (3.125 g ai/ha) % activity (Hordeum vulgare (HORVS); 3.125 g ai/ha): 0%
- Solo pyraclonil (3.125 g ai/ha) % activity ([3]; 3.125 g ai/ha): 30%
- Solo Pyraclonil (6.25 g ai/ha) % activity ([3]; 6.25 g ai/ha): 20%
